Results on four compounds are retold here after article PMC8000448, “Inhibitory Effects of Schisandra Lignans on Cytochrome P450s and Uridine 5′-Diphospho-Glucuronosyl Transferases in Human Liver Microsomes” (Pharmaceutics, 2021).

Read-outs that look alike come from different tables or passages of the source.

The target in one data set is T1, CYP2A6 (Homo sapiens, UniProt P11509).
T1 construct: pooled HLMs (0.25 mg/mL); tissue XenoTech H2630; host or cells: pooled human liver microsomes, mixed gender
T1 sequence (P11509 1-494): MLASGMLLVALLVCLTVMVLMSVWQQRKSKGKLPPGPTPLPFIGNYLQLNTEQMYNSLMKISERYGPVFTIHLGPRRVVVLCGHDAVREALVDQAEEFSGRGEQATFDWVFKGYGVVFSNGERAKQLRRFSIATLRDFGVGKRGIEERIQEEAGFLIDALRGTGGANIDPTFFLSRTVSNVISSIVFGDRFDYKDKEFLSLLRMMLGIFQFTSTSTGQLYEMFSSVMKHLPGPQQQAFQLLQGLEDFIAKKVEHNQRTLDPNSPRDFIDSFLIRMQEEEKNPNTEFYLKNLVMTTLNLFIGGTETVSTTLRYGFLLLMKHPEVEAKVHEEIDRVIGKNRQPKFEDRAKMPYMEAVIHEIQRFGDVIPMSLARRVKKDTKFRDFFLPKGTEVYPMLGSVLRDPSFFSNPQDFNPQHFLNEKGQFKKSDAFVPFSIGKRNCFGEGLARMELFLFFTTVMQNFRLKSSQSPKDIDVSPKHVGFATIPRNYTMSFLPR
Kind of data set: CYP2A6 inhibition in HLMs (coumarin). It counts as in vitro ADME. As for the experimental part: (§1) Lignans were first dissolved in methanol. […] All microsomal incubations were performed in triplicate.

The target of the next data set is T2, UGT2B7 (Homo sapiens, UniProt P16662).
T2 construct: pooled HLMs (0.25 mg/mL); tissue XenoTech H2630; host or cells: pooled human liver microsomes, mixed gender
T2 sequence (P16662 24-529): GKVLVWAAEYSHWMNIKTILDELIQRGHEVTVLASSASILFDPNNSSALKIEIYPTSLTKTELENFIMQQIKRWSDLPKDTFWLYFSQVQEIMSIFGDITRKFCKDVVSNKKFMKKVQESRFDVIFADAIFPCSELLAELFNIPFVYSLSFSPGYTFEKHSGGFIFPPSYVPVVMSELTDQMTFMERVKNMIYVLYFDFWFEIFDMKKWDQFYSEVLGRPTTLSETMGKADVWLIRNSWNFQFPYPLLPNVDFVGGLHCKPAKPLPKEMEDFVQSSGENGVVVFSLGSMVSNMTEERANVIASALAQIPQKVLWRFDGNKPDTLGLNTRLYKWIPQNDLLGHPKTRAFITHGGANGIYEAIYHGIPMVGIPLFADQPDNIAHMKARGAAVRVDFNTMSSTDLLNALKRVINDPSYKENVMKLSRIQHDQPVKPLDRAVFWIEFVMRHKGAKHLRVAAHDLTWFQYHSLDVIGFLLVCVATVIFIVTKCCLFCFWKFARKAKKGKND
Kind of data set: UGT2B7 inhibition in HLMs (naloxone). Format: in vitro ADME. The following applies: average in triplicate, read-out: IC50, UGT 2B6 (so in the source). As for the experimental part:
(§2) The inhibitory potential of six lignans on six UGT activities was evaluated using the previously developed cocktail method with slight modifications. […] These substrates are known to be selective for each UGT isoforms.

Data set [1] has as its system CYP3A. Details: method as in PMID 20448858. The following applies: read-out: IC50, CYP3A-mediated midazolam hydroxylation; cited from earlier work.
The subject of the next data set is CYP1A2. Details: method as in PMID 15342469. The following applies: cited from earlier work.
The subject of data set [2] is CYP2C9. Details: method as in PMID 15342469. The following applies: cited from earlier work.
Data set [3] concerns CYP2C19. Details: method as in PMID 15342469. The following applies: cited from earlier work.
A further data set deals with CYP2D6. Details: method as in PMID 15342469. The following applies: cited from earlier work.
Data set [4] concerns the target CYP2C9 (Homo sapiens, UniProt P11712). Kind of data set: in vitro. The following applies: microsomes, pH 7.4, IC50 Shift.
Procedure: (§3) Lignans were first dissolved in methanol. The final organic solvent concentration in the incubation media was ≤1.0% (v/v). The microsomal incubation was conducted using two cocktail sets containing non-interactive substrates: set A containing phenacetin, bupropion, amodiaquine, diclofenac, S-mephenytoin, and dextromethorphan as substrates for CYP1A2, CYP2B6, CYP2C8, CYP2C9, CYP2C19, and CYP2D6, respectively; and set B containing coumarin and chlorzoxazone as substrates for CYP2A6 and CYP2E1, and midazolam, nifedipine, and testosterone as substrates for CYP3A4 (Table 1). These substrates are known to be selective for each P450 isoforms. Incubation mixtures containing potassium phosphate buffer (0.1 M, pH 7.4), pooled HLMs (0.25 mg/mL), P450 probe substrate cocktails, and lignan (0~50 μM) were pre-incubated at 37 °C (5 min). Following pre-incubation, an NADPH generating system (1.3 mM NADP^+, 3.3 mM G6P, 1 unit/mL G6PDH, and 3.3 mM MgCl2) was added to initiate the reaction, and further incubated for 10 min. The reaction was quenched with 50 μL of cold acetonitrile containing internal standard (IS; 7 nM trimipramine). After centrifugation at 14,000 rpm (5 min at 4 °C), aliquots of supernatants were filtered through a 0.2 μm membrane filter and were measured by liquid chromatography-tandem mass spectrometry (LC-MS/MS). All microsomal incubations were performed in triplicate.
The target in data set [5] is CYP2C19 (Homo sapiens, UniProt P33261). The experiment in a line: in vitro. The following applies: microsomes, pH 7.4, IC50 Shift.
Procedure: as §3
The subject of data set [6] is CYP3A. The following applies: rats; cited from earlier work.
The next data set has as its target six UGT enzymes. The experiment in a line: UGT inhibition in HLMs, summary statements over several isoforms. It counts as in vitro ADME, human. The following applies: UGTs other than UGT1A1 and UGT1A3. As for the experimental part:
as §2

In data set [7] the test system is recombinant CYP3A4. The following applies: recombinant CYP3A4 isoform; read-out: IC50, CYP3A-mediated midazolam 1′-hydroxylation; cited from earlier work.
Data set [8] relates to CYP3A. Details: method as in PMID 15342469. The following applies: read-out: IC50, CYP3A-mediated testosterone hydroxylase activity; cited from earlier work.
A further data set has as its system UGT1A3. Details: method as in PMID 23339253. The following applies: cited from earlier work.
The test system of a further data set is CYP3A4. The following applies: in the presence of the inhibitor; cited from earlier work.
The subject of data set [9] is P450s other than CYP1A2, CYP2B6, CYP2C19, CYP2E1 and CYP3A (range over several isoforms). Kind of data set: P450 inhibition in HLMs, summary statements over several isoforms. It counts as in vitro ADME, human. The following applies: human, pooled human liver microsomes, pH 7.4, probe P450 probe substrate cocktails (sets A and B); HLMs; reversible inhibition; P450s other than CYP1A2, CYP2B6, CYP2C19, CYP2E1 and CYP3A. As for the experimental part:
as §1

A further data set deals with nine P450 enzymes. Described as above. Format: in vitro ADME, human. The following applies: HLMs pre-incubated in the presence of NADPH. As for the experimental part: as §1
Data set [10] has as its system recombinant CYP3A4. The following applies: rCYP3A4, fluorescent substrate; cited from earlier work.
Where [11] appears, read: 30 min pre-incubation with NADPH generating system, read-out: IC50 TDI, CYP2A6.
Where [12] appears, read: reversible inhibition, read-out: IC50 RI, CYP2A6.

Chain of CYP2C19 (Homo sapiens, UniProt P33261) (P33261 whole entry): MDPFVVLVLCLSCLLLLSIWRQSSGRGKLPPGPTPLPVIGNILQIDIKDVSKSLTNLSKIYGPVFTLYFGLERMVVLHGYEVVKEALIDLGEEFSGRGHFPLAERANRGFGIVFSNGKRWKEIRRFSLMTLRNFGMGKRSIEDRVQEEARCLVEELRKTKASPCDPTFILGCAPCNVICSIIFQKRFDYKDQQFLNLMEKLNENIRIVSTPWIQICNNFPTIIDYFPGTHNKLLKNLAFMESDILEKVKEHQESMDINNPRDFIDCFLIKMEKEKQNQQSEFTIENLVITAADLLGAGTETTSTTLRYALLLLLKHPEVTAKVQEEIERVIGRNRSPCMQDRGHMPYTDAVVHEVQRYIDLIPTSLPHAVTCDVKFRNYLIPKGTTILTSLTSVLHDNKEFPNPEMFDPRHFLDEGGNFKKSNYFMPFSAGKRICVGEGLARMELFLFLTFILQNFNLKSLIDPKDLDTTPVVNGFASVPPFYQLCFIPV
Chain of CYP2C9 (Homo sapiens, UniProt P11712) (P11712 whole entry): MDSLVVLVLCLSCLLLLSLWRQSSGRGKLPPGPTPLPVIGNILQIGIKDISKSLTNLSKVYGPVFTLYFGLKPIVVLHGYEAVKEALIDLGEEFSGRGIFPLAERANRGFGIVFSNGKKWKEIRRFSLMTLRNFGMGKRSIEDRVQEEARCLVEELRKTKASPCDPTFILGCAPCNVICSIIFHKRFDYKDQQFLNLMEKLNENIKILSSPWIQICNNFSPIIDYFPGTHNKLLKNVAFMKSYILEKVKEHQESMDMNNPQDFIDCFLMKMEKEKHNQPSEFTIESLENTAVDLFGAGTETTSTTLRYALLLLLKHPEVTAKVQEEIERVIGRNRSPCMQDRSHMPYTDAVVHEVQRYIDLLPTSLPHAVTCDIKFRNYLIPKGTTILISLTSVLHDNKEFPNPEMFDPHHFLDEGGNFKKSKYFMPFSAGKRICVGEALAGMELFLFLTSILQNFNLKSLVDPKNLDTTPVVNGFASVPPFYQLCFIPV

As for `COc1cc2c(c(OC)c1OC)-c1c(cc3c(c1OC)OCO3)C[C@H](C)[C@H](C)C2` [Gomisin N, gomisin N], the half-maximal inhibitory concentration (IC50) on CYP2A6 (setting [11]) was greater than 50 µM; on CYP2A6 (setting [12]) it was 38.2 µM; on UGT2B7 it was greater than 50 µM; in the data set with CYP3A [1] it was 5.5 µM; with CYP1A2, greater than 10 µM; in the data set with CYP2C9 [2], greater than 10 µM. Besides, the 50% inhibitory concentration (IC50) in the data set with CYP2C19 [3] and in the data set on CYP2D6 was greater than 10 µM in each case. The IC50 shift at 10 min at CYP2C9 [4] and at CYP2C19 [5] was greater than 1.8 each time. Moreover, the “Oral bioavailability of drugs metabolized by CYP3A, including midazolam” value in the data set on CYP3A [6] is “increase”.
`COc1cc2c(c(OC)c1OC)-c1c(cc3c(c1OC)OCO3)C[C@H](C)[C@](C)(O)[C@H]2OC(=O)c1ccccc1` [Gomisin C, gomisin C]: the 50% inhibitory concentration (IC50) on CYP2A6 (setting [11]) is greater than 50 µM; at CYP2A6 (setting [12]), greater than 50 µM; at UGT2B7, greater than 50 µM; against six UGT enzymes it was greater than 50 µM; with recombinant CYP3A4 [7] it was 0.059 µM; in the data set with CYP3A [8], 0.26 to 0.62 µM. Moreover, the 50% inhibitory concentration (IC50) in the data set on CYP1A2 is greater than 10 µM; in the data set with CYP2C9 [2] it was greater than 10 µM; in the data set with CYP2C19 [3], greater than 10 µM; in the data set with CYP2D6, greater than 10 µM; in the data set on UGT1A3, 12.5 µM. In the data set with CYP3A4, the “Estimated increase of AUC of drugs predominantly biotransformed by CYP3A4” value is on record as 22–321%.
For `COc1c2c(cc3c1-c1c(cc4c(c1OC)OCO4)C[C@H](C)[C@H](C)C3)OCO2` [Wuweizisu C, wuweizisu C], the IC50 on CYP2A6 (setting [11]), on CYP2A6 (setting [12]) and on UGT2B7 was greater than 50 µM throughout.
In the case of `COc1cc2c(c(OC)c1OC)-c1c(cc(OC)c(OC)c1OC)C[C@](C)(O)[C@@H](C)C2` [Schisandrin, schisandrin], the IC50 on CYP2A6 (setting [11]) is greater than 50 µM; at CYP2A6 (setting [12]) it was 40.9 µM; on UGT2B7 it was greater than 50 µM; with recombinant CYP3A4 [10], 32 µM. In addition, the 50% inhibitory concentration (IC50) at 10 min in [9] is 22 to 43 µM. Also, the “Inhibitory potential against nine P450s after pre-incubation with NADPH compared to untreated HLMs” value in the data set on nine P450 enzymes was “did not increase”.
